# Assay results from patent US10202354B2, “Therapeutic compounds and uses thereof” (GENENTECH, INC., priority 2015, dated 2019).
# Molecular target: Full length KDM2B (Homo sapiens (Human), UniProt Q8NHM5)
# Assay: KDM2B TR-FRET Assay for Determining Inhibitor IC50
# Assay type: biochemical
# Settings: TR-FRET (HTRF), biotin-H3K36me2 peptide substrate
# Source text: KDM2B TR-FRET Assay for Determining Inhibitor IC50
# The KDM2B TR-FRET Assay described above represents an additional embodiment of the invention.
# Sequence of Full length KDM2B (Q8NHM5 whole entry): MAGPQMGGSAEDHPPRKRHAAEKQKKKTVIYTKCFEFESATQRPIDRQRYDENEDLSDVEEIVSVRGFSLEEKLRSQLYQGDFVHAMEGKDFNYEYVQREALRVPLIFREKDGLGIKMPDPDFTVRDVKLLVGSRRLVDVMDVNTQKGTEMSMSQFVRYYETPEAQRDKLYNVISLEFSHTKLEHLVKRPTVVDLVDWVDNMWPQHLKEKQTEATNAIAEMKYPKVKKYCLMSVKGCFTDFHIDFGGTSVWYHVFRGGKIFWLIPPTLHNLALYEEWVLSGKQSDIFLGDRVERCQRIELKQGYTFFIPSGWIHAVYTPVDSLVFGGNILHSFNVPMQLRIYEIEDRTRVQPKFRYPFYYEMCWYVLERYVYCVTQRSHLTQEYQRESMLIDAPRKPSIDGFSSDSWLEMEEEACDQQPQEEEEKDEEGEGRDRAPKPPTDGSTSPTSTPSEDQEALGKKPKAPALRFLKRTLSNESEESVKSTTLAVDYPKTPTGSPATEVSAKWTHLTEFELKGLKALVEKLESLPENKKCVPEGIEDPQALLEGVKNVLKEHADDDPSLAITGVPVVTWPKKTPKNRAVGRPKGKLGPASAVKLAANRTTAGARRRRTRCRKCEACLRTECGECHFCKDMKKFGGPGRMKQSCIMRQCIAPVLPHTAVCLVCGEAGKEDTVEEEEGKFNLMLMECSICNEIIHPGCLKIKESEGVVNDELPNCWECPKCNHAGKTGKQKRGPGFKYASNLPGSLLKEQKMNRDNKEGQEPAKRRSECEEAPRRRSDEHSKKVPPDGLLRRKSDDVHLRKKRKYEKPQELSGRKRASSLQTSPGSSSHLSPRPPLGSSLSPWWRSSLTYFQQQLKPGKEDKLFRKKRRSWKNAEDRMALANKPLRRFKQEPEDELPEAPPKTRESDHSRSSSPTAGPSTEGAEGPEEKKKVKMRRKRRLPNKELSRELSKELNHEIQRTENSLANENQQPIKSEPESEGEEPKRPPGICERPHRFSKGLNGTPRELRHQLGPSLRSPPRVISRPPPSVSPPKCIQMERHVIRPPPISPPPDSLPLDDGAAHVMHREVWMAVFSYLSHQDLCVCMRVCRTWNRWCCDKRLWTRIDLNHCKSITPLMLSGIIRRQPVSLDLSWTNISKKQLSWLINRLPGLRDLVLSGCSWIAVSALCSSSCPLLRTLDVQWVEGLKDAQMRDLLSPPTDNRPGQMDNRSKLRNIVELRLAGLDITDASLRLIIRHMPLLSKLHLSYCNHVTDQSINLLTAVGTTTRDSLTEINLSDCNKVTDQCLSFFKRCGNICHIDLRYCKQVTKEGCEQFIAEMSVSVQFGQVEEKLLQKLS
row,Compound,IC50 [nM]
1,"CC(C)c1ccc(S(=O)(=O)N2CCN=C2N2CCN(C3CC(F)C3)CC2)cc1 (stereo not drawn) [Example 40, 1-(3-fluorocyclobutyl)-4-[1-(4-isopropylphenyl)sulfonyl-4,5-dihydroimidazol-2-yl]piperazine]",0.391
2,"CC(C)c1ccc(S(=O)(=O)N2C[C@@H](C3CC3)N=C2N2CCN(C3CCC3)CC2)cc1 [Example 41, (R)-1-cyclobutyl-4-(4-cyclopropyl-1-((4-isopropylphenyl)sulfonyl)-4,5-dihydro-1H-imidazol-2-yl)piperazine]",0.039
3,"CC(C)c1ccc(S(=O)(=O)N2C[C@H](C3CC3)N=C2N2CCN(C3CCC3)CC2)cc1 [Example 42, (S)-1-cyclobutyl-4-(4-cyclopropyl-1-((4-isopropylphenyl)sulfonyl)-4,5-dihydro-1H-imidazol-2-yl)piperazine]",0.047
4,"CCN1CCN(C2=N[C@H](C)CN2S(=O)(=O)c2ccc(C(C)C)cc2)CC1 [Example 43, (R)-1-ethyl-4-[1-(4-isopropylphenyl)sulfonyl-4-methyl-4,5-dihydroimidazol-2-yl]piperazine]",8.76
5,"CCN1CCN(C2=N[C@@H](C)CN2S(=O)(=O)c2ccc(C(C)C)cc2)CC1 [Example 44, (S)-1-ethyl-4-[1-(4-isopropylphenyl)sulfonyl-4-methyl-4,5-dihydroimidazol-2-yl]piperazine]",0.519
6,"CC(C)c1ccc(S(=O)(=O)N2CC3(CCCC3)N=C2N2CCN(C3CCC3)CC2)cc1 [Example 45, 2-(4-cyclobutylpiperazin-1-yl)-3-(4-isopropylphenyl)sulfonyl-1,3-diazaspiro[4.4]non-1-ene]",0.049
7,"CC(C)c1ccc(S(=O)(=O)N2C[C@@H](C)N=C2N2CCN(C3CCC3)CC2)cc1 [Example 46, (R)-1-cyclobutyl-4-[1-(4-isopropylphenyl)sulfonyl-4-methyl-4,5-dihydroimidazol-2-yl]piperazine]",0.054
8,"CC(C)c1ccc(S(=O)(=O)N2C[C@H](C)N=C2N2CCN(C3CCC3)CC2)cc1 [Example 47, (S)-1-cyclobutyl-4-[1-(4-isopropylphenyl)sulfonyl-4-methyl-4,5-dihydroimidazol-2-yl]piperazine]",0.114
9,"CC(C)c1ccc(S(=O)(=O)N2CCN=C2N2C3CCC2CN(C2CCC2)C3)cc1 [Example 48, 3-cyclobutyl-8-[1-(4-isopropylphenyl)sulfonyl-4,5-dihydroimidazol-2-yl]-3,8-diazabicyclo[3.2.1]octane]",1.19
10,"CC(C)c1ccc(S(=O)(=O)N2CCN=C2N2CCC(N3CCOCC3)CC2)cc1 [Example 49, 4-[1-[1-(4-isopropylphenyl)sulfonyl-4,5-dihydroimidazol-2-yl]-4-piperidyl]morpholine]",4.22
11,"Cn1c(=O)oc2cc(S(=O)(=O)N3CCN=C3N3CCN(C4CCC4)CC3)ccc21 [Example 55, 6-[[2-(4-cyclobutylpiperazin-1-yl)-4,5-dihydroimidazol-1-yl]sulfonyl]-3-methyl-1,3-benzoxazol-2-one]",0.36
12,"Cc1cccc(S(=O)(=O)N2CCN=C2N2CCN(C3CCC3)CC2)c1 [Example 59, 1-cyclobutyl-4-[1-(m-tolylsulfonyl)-4,5-dihydroimidazol-2-yl]piperazine]",0.146
13,"O=S(=O)(c1cccc(C(F)(F)F)c1)N1CCN=C1N1CCN(C2CCC2)CC1 [Example 60, 1-cyclobutyl-4-[1-[3-(trifluoromethyl)phenyl]sulfonyl-4,5-dihydroimidazol-2-yl]-piperazine]",0.278
14,"O=S(=O)(c1cc(Cl)cc(Cl)c1)N1CCN=C1N1CCN(C2CCC2)CC1 [Example 62, 1-cyclobutyl-4-[1-(3,5-dichlorophenyl)sulfonyl-4,5-dihydroimidazol-2-yl]piperazine]",0.306
15,"O=S(=O)(c1cccc2nonc12)N1CCN=C1N1CCN(C2CCC2)CC1 [Example 64, 4-[[2-(4-cyclobutylpiperazin-1-yl)-4,5-dihydroimidazol-1-yl]sulfonyl]-2,1,3-benzoxadiazole]",0.5
